pIC50: −log10 of the molar value.

Data set [1] has as its target T1, Amine oxidase [flavin-containing] A (Homo sapiens, UniProt P21397).
T1 sequence (P21397 whole entry): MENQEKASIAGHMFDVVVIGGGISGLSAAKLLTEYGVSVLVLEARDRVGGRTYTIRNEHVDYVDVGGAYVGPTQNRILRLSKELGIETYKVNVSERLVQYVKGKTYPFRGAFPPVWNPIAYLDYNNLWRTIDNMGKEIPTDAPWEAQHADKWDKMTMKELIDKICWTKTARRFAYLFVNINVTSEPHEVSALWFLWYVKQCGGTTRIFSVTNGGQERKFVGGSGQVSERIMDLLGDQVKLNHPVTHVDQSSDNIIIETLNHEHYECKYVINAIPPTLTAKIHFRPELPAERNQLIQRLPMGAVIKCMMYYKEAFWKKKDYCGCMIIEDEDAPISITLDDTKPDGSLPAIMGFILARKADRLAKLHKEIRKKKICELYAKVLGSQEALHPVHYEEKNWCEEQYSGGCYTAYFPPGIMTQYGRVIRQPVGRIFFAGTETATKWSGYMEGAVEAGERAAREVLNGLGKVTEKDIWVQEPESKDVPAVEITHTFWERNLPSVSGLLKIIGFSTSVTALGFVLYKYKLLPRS
Description: Inhibition of recombinant human MAO-A.

The target of data set [2] is T2, Amine oxidase [flavin-containing] A (Mus musculus, UniProt Q64133).
T2 sequence (Q64133 whole entry): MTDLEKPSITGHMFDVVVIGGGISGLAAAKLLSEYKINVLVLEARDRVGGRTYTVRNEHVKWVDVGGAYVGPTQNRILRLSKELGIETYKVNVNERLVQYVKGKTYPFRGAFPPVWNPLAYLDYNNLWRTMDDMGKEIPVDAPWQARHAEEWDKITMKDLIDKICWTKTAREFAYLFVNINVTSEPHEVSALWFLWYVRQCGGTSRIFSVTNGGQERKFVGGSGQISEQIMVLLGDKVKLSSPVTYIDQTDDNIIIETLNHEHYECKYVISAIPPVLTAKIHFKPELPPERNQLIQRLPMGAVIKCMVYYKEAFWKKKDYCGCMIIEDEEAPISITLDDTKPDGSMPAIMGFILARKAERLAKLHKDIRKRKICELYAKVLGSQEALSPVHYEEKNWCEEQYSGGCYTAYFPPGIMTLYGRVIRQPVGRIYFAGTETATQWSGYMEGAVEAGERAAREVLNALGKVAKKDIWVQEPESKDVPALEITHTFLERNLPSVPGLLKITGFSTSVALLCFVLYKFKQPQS
Description: Inhibition of mouse MAO-A.

Data set [3] concerns the target T3, MAO-B (amine oxidase [flavin-containing] B) (Homo sapiens, UniProt P27338).
T3 sequence (P27338 whole entry): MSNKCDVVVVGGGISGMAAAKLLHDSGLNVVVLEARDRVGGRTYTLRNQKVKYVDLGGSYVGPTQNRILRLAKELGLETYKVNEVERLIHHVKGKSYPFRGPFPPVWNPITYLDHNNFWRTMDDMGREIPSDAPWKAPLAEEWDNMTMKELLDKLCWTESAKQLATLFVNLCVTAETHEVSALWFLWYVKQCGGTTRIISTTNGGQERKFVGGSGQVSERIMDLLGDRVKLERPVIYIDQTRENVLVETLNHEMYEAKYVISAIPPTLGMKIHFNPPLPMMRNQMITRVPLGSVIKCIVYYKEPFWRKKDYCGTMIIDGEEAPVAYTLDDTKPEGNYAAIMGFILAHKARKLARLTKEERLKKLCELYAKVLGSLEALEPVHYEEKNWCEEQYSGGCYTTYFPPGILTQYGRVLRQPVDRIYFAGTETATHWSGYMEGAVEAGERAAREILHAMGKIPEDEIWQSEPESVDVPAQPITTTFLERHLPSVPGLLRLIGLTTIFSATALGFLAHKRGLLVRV
Briefly: Inhibition of human MAO-B assessed as residual activity at 10 uM relative to control. The settings on record: read-out: Activity.

Data set [4] concerns the target T4, Amine oxidase [flavin-containing] B (Mus musculus, UniProt Q8BW75).
T4 sequence (Q8BW75 whole entry): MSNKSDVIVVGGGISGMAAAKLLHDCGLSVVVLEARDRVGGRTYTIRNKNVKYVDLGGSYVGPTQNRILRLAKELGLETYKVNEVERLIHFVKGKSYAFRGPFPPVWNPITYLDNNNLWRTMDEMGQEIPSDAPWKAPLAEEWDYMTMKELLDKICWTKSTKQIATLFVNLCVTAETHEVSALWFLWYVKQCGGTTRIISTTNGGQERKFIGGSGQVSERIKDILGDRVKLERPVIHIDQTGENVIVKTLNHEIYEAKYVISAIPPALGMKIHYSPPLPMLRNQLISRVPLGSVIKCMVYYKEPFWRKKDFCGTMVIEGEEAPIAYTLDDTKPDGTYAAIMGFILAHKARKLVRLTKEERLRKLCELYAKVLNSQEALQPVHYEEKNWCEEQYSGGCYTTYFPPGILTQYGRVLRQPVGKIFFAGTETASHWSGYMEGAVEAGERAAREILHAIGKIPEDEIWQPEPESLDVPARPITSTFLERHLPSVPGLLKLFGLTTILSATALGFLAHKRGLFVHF
Briefly: Inhibition of mouse MAO-B.

For the molecule `COc1cc2c(cc1OC)CN(CCCOc1ccc(C(C)=O)c(O)c1)CC2`, the pIC50 (commonly the negative decadic logarithm of the IC50, by convention in mol/L) in data set [1] is 5.09.

For the molecule `COc1cc2c(cc1OC)CNCC2`, the values for the negative-log IC50 (pIC50) in data set [2] and in data set [4] were < 4.00 and < 3.00, respectively. Moreover, in data set [3], the activity at 10 µM stood at 96%.

For the origin of these results see ChEMBL document CHEMBL5113541, “Design, Synthesis, and Monoamine Oxidase B Selective Inhibitory Activity of N-Arylated Heliamine Analogues” (ACS Med Chem Lett, 2022).
